Results reported in patent US20050215635A1, “Diarylheptanoid compounds and uses thereof” (priority 2004, published 2005).
“Also recorded” adds a separate entry of the source.

Columns and labels:
Type in all cases: cell-based
[1] = tested on: TNF-α production from human PBMCs; assay: TNF-α ELISA in supernatants of LPS-treated human PBMCs; details: 18 hrs
Procedure: The PBMCs were separated from peripheral blood of normal healthy human volunteers. […] Supernatant was harvested after 18 hrs and stored at −70° C. until tested. The quantity of IL-1β and TNF-α present in supernatants was estimated by ELISA (R&D systems, MN, USA) following manufacturer's instruction. A standard curve was obtained by plotting known concentrations of recombinant human IL-1β and TNF-α vs absorbance at 450 nm.
Each data point represents mean+standard deviation (SD) of 3 replicates.

[2] = tested on: Du-145 prostate tumor cells; assay: MTT-microculture tetrazolium cell viability assay / induction of apoptosis in Du-145
Procedure: The rhizomes of Alpinia officinarum were purchased from Nuherbs Co. (Oakland, Calif.). Du-145 prostate tumor cells were obtained from the American Type Culture Collection (ATCC). Cells were maintained at 37° C. in an atmosphere of 5% CO2 and grown in Roswell Park Memorial Institute (RPMI) media 1640 (GIBCO/BRL) with 10% fetal bovine serum and with 5% penicillin and streptomycin.
The powdered roots of Alpinia officinarum were extracted with methanol and concentrated under vacuum using rotary evaporation. The dried residue was then partitioned with hexanes, ethyl acetate and 1-butanol successively. The three extracts were subjected to bioassays.
The dried ethyl acetate extract was then chromatographed on a normal phase silica gel column (2.5×30 cm) to perform bioassay-directed fractionation. The extract was first dissolved in methanol and loaded onto the column packing material. The prepared extract was then placed on top of the column and elution was performed using a solvent mixture of chloroform/methanol with an increasing amount of methanol (30:1, 20:1, 10:1, 5:1, 0:100; each 1000 mL). Successive fractions were collected and tested for biological activity. […] This fraction was then rechromatographed on a semipreparative Zorbax Rx-C18 reversed phase HPLC column (9.4 mm×240 mm, 5 μm) purchased from MacMod Analytical (Chadds Ford, Pa.). Compounds were eluted by an isocratic solvent system: 55% A, water with 0.05% formic acid (FA); 45% B, ACN (v/v) at a flow rate of 4 mL/min. The wavelength monitored was 205 nm. Successive fractions (1-3) were collected and sent for biological testing again.
Cellular growth in the presence or absence of experimental agents was determined using the modified method as previously described MTT-microculture tetrazolium assay (World Health Organization (ED.), Medicinal Plants in China, WHO Regional Publications, 1989, 21). Briefly, rapidly growing cells were harvested, counted, and inoculated at the appropriate concentrations (100 μL volume) into 96-well micro-titer plates using a multichannel pipet. After 24 hours, AO-1 to AO-5 were applied in different concentrations to triplicate culture wells, and cultures were incubated for 72 hours at 37° C. MTT ( Sigma, St. Louis, Mo.) was prepared at 2 mg/ml in Phosphate buffered saline (PBS) and 50 μL were added to microculture wells. After 4 hour incubation at 37° C., […] were removed from each well, and 150 μL of 100% DMSO were added to solubilize the MTT-formazan product. After thorough mixing with a mechanical plate mixer, absorbence was measured at 570 nm using a Dynatech microplate reader. […] This assay is based on the reduction of MTT tetrazolium salt to a formazan product by the metabolic activity of live cells and which was measured in a multiwell scanning spectrophotometer. Cell line growth and growth inhibition were expressed in terms of mean absorbance units and following the substraction of mean background absorbance.

[3] = tested on: LPS induced NO production from mouse macrophage cells (RAW 264.7); assay: Nitric oxide measurement (nitrite, Griess reagent) in LPS-treated RAW 264.7 cells; details: RAW 264.7, 24 hrs
Procedure: The mouse macrophage cells (RAW 264.7) were cultured in DMEM supplemented with 15% fetal bovine serum (FBS) and antibiotic and antimycotic mixture. The cell suspension of 50,000 cells/well was cultured in flat bottom microtitre plate in quadruplicate for 12 hrs. Thereafter, 100 μl of media was replaced with fresh medium containing either LPS (0.5 μg/ml) alone or LPS with various concentrations of HMP and further cultured for 24 hrs. The culture supernatant was collected at the end of culture for nitrite assay, which was used as a measure of NO production. Culture supernatant (100 μl) was mixed with equal volume of Griess reagent (SIGMA, MO, USA) and the absorbance was measured at 570 nm. The concentration of nitrite (μM) was calculated from standard curve drawn with known concentration of sodium nitrite dissolved in DMEM. The results are presented as mean ±SD of 4 replicates of one representative experiment and this experiment was repeated 5 times. For the NO assay, RAW 264.7 cells were treated with LPS (0.5 μg/ml) and/or various concentrations of HMP for 24 hrs and amount of nitrite in supernatant from each treatment group was measured using Griess reagent. Each data point represents mean+standard deviation (SD) of 5 replicates of one representative experiment of total 6 experiments.

COc1cc(CC/C=C/C(=O)CCc2ccccc2)ccc1O [AO-4, 7-(4″-hydroxy-3″-methoxyphenyl)-1-phenyl-hept-4-en-3-one]
TNF-α ([1]; HMP 6.25 μM + LPS (10 ng/ml)): 342.24 ± 11.50 pg/mL | TNF-α ([1]; HMP 6.25 μM alone, detection limit 15.62 pg/ml): <15.62 pg/mL | TNF-α ([1]; HMP 12.5 μM + LPS (10 ng/ml)): 298.49 ± 5.47 pg/mL | TNF-α ([1]; HMP 12.5 μM alone, detection limit 15.62 pg/ml): <15.62 pg/mL | TNF-α ([1]; HMP 25 μM + LPS (10 ng/ml)): 165.38 ± 8.48 pg/mL | TNF-α ([1]; HMP 25 μM alone, detection limit 15.62 pg/ml): <15.62 pg/mL | inhibition of LPS induced TNF-α (in words) ([1]; HMP 6.25-25 μM + LPS): only at 25 μM concentration | IC50 ([2]; Homo sapiens, Du-145 prostate tumor cells, MTT, 72 hours incubation, drug concentration giving 50% inhibition of growth, read-out: IC50 (μM), Effects of Diarylheptanoids on Inducing Apoptosis in DU-145 Cancer Cell Line): 12.5 µM | activity in bioassay: inducing apoptosis in Du-145 cancer cell line (in words) ([2]; bioassay-directed fractionation of Alpinia officinarum): some activity; also recorded: most potent | Nitrite ([3]; HMP 6.25 μM + LPS (0.5 μg/ml)): 14.54 ± 2.5 µM | Nitrite ([3]; HMP 6.25 μM alone): 3.66 ± 1.08 µM | Nitrite ([3]; HMP 12.5 μM + LPS (0.5 μg/ml)): 13.75 ± 2.65 µM | Nitrite ([3]; HMP 12.5 μM alone): 3.88 ± 1.14 µM | Nitrite ([3]; HMP 25 μM + LPS (0.5 μg/ml)): 9.95 ± 1.41 µM | Nitrite ([3]; HMP 25 μM alone): 3.86 ± 0.97 µM | LPS induced production of nitric oxide (in words) ([3]; HMP 6.25-25 μM + LPS (0.5 μg/ml)): significantly inhibited by HMP in a dose dependent manner | NO production, HMP alone (in words) ([3]; HMP alone): no effect on NO production
